Measurements reported in patent US20220296676A1 (priority 2020, published 2022).

Columns and labels:
[1] = test system: human coronavirus (HCoV) 229E; assay: microbe, parasite or virus in culture; conditions: MRC5, 72 h
in vitro [2] = conditions: human
in vitro [3] = conditions: human; remark: listed apart in the source

Compound | EC50 [1] [µM] | CC50 (in vitro [2]) [µM] | CC50 at 3 days (in vitro [2]) [µM] | CC50 (in vitro [3]) [µM]
CCC(CC)COC(=O)[C@H](C)N[P@](=O)(OC[C@H]1O[C@@](C#N)(c2ccc3c(N)ncnn23)[C@H](O)[C@@H]1O)Oc1ccccc1 [Remdesivir, reference compound] | 0.03 | 49.2 | – | –
C/C=C/C[C@@H](C)[C@@H](O)[C@H]1C(=O)N[C@@H](CC)C(=O)N(C)[C@H](SCCN(C)C)C(=O)N(C)[C@@H](CC(C)(C)O)C(=O)N[C@@H](C(C)C)C(=O)N(C)[C@@H](CC(C)C)C(=O)N[C@@H](C)C(=O)N[C@H](C)C(=O)N(C)[C@@H](CC(C)C)C(=O)N(C)[C@@H](CC(C)C)C(=O)N(C)[C@@H](C(C)C)C(=O)N1C [WS-635] | 5.16 | – | 46.8 | > 100
